Reference: article PMC10041525, “New Dual Inhibitors of Bacterial Topoisomerases with Broad-Spectrum Antibacterial Activity and In Vivo Efficacy against Vancomycin-Intermediate Staphylococcus aureus” (Journal of Medicinal Chemistry, 2023)
Converted amounts (≈) assume the structure as drawn. “And” between values parts separate entries of the source, which are not always exact repeats. Identical values can stand only once. Like-named read-outs stand apart in the source and are kept apart here.

What was measured:
Assay in all cases: MIC broth microdilution at IHMA Europe
E. faecium (n = 13) = type: cell-based; details: for MIC: Enterococcus faecium, read-out: MIC
S. pneumoniae (n = 12) = type: cell-based; details: for MIC: Streptococcus pneumoniae, read-out: MIC
[1] = tested on: Neisseria gonorrhoeae (n = 12); type: cell-based; details: for MIC: Neisseria gonorrhoeae, read-out: MIC
[2] = tested on: Haemophilus influenzae (n = 14); type: cell-based, H. influenzae; details: for MIC: Haemophilus influenzae, read-out: MIC

Cc1[nH]c(C(=O)Nc2nc3c(N4[C@@H]5CC[C@H]4COC5)cc(C(=O)O)cc3s2)c(Cl)c1Cl [7h, 4-((1R,5S)-3-Oxa-8-azabicyclo[3.2.1]octan-8-yl)-2-(3,4-dichloro-5-methyl-1H-pyrrole-2-carboxamido)benzo[d]thiazole-6-carboxylic Acid]
MIC (E. faecium (n = 13); E. faecium IHMA N° 1764866): ≤ 0.03 µg/mL
MIC (E. faecium (n = 13); E. faecium IHMA N° 1765436): 0.06 µg/mL (≈ 0.125 µM)
MIC (E. faecium (n = 13); E. faecium IHMA N° 1765746): ≤ 0.03 µg/mL
MIC (E. faecium (n = 13); E. faecium IHMA N° 1893573): ≤ 0.03 µg/mL
MIC (E. faecium (n = 13); E. faecium IHMA N° 1893846): 0.12 µg/mL (≈ 0.249 µM)
MIC (E. faecium (n = 13); E. faecium IHMA N° 1893942): 0.06 µg/mL (≈ 0.125 µM)
MIC (E. faecium (n = 13); E. faecium IHMA N° 1894055): 0.06 µg/mL (≈ 0.125 µM)
MIC (E. faecium (n = 13); E. faecium IHMA N° 1897027): 0.06 µg/mL (≈ 0.125 µM)
MIC (E. faecium (n = 13); E. faecium IHMA N° 1897101): ≤ 0.03 µg/mL
MIC (E. faecium (n = 13); E. faecium IHMA N° 1904592): ≤ 0.03 µg/mL
MIC (E. faecium (n = 13); E. faecium IHMA N° 2075051): 0.06 µg/mL (≈ 0.125 µM)
MIC (E. faecium (n = 13); E. faecium IHMA N° 2077718): ≤ 0.03 µg/mL
MIC (E. faecium (n = 13); E. faecium IHMA N° 2083787): ≤ 0.03 µg/mL
Cumulative % at MIC (E. faecium (n = 13); MIC 0.06 µg/mL): 92.3%
Cumulative % at MIC (E. faecium (n = 13); MIC […]): 100.0%
Cumulative % at MIC (E. faecium (n = 13); MIC ≤0.03 µg/mL): 53.8%
MIC, all isolates (E. faecium (n = 13); n = 13): ≤ 0.12 µg/mL
Cumulative % at MIC (S. pneumoniae (n = 12); MIC 0.06 µg/mL): 16.7%
Cumulative % at MIC (S. pneumoniae (n = 12); MIC […] µg/mL): 100.0%
Cumulative % at MIC (S. pneumoniae (n = 12); MIC […]): 91.7%
MIC (S. pneumoniae (n = 12); S. pneumoniae IHMA N° 1775387): 0.25 µg/mL (≈ 0.519 µM)
MIC (S. pneumoniae (n = 12); S. pneumoniae IHMA N° 1776057): 0.5 µg/mL (≈ 1.04 µM)
MIC (S. pneumoniae (n = 12); S. pneumoniae IHMA N° 1785617): 0.25 µg/mL (≈ 0.519 µM)
MIC (S. pneumoniae (n = 12); S. pneumoniae IHMA N° 1800765): 0.25 µg/mL (≈ 0.519 µM)
MIC (S. pneumoniae (n = 12); S. pneumoniae IHMA N° 1811259): 0.06 µg/mL (≈ 0.125 µM)
MIC (S. pneumoniae (n = 12); S. pneumoniae IHMA N° 1831562): 0.25 µg/mL (≈ 0.519 µM)
MIC (S. pneumoniae (n = 12); S. pneumoniae IHMA N° 1902609): 0.25 µg/mL (≈ 0.519 µM)
MIC (S. pneumoniae (n = 12); S. pneumoniae IHMA N° 1979675): 0.25 µg/mL (≈ 0.519 µM)
MIC (S. pneumoniae (n = 12); S. pneumoniae IHMA N° 1991963): 0.25 µg/mL (≈ 0.519 µM)
MIC (S. pneumoniae (n = 12); S. pneumoniae IHMA N° 2057487): 0.25 µg/mL (≈ 0.519 µM)
MIC (S. pneumoniae (n = 12); S. pneumoniae IHMA N° 2073087): 0.25 µg/mL (≈ 0.519 µM)
MIC (S. pneumoniae (n = 12); S. pneumoniae IHMA N° 2117109): 0.06 µg/mL (≈ 0.125 µM)
MIC, all isolates (S. pneumoniae (n = 12); n = 12): ≤ 0.5 µg/mL
No. of isolates at MIC [1]: 8 and 4
Cumulative % at MIC ([1]; MIC 0.06 µg/mL): 100.0%
Cumulative % at MIC ([1]; MIC ≤0.03 µg/mL): 66.7%
MIC ([1]; isolate IHMA 1123853): ≤ 0.03 µg/mL
MIC ([1]; isolate IHMA 1130935): ≤ 0.03 µg/mL
MIC ([1]; isolate IHMA 1130989): 0.06 µg/mL (≈ 0.125 µM)
MIC ([1]; isolate IHMA 1130991): ≤ 0.03 µg/mL
MIC ([1]; isolate IHMA 1137292): 0.06 µg/mL (≈ 0.125 µM)
MIC ([1]; isolate IHMA 1145734): ≤ 0.03 µg/mL
MIC ([1]; isolate IHMA 1145735): ≤ 0.03 µg/mL
MIC ([1]; isolate IHMA 1165897): ≤ 0.03 µg/mL
MIC ([1]; isolate IHMA 1194748): ≤ 0.03 µg/mL
MIC ([1]; isolate IHMA 1194750): ≤ 0.03 µg/mL
MIC ([1]; isolate IHMA 1546199): 0.06 µg/mL (≈ 0.125 µM)
MIC ([1]; isolate IHMA 1546215): 0.06 µg/mL (≈ 0.125 µM)
MIC, all isolates ([1]; n = 12): ≤ 0.06 µg/mL
No. of isolates at MIC [2]: 5 and 4
MIC ([2]; H. influenzae IHMA N° 1227715): 0.12 µg/mL (≈ 0.249 µM)
MIC ([2]; H. influenzae IHMA N° 1241620): 0.12 µg/mL (≈ 0.249 µM)
MIC ([2]; H. influenzae IHMA N° 1244149): 0.5 µg/mL (≈ 1.04 µM)
MIC ([2]; H. influenzae IHMA N° 1249803): 0.12 µg/mL (≈ 0.249 µM)
MIC ([2]; H. influenzae IHMA N° 1254355): 0.25 µg/mL (≈ 0.519 µM)
MIC ([2]; H. influenzae IHMA N° 1258580): 0.5 µg/mL (≈ 1.04 µM)
MIC ([2]; H. influenzae IHMA N° 1262734): 0.25 µg/mL (≈ 0.519 µM)
MIC ([2]; H. influenzae IHMA N° 1272723): 0.12 µg/mL (≈ 0.249 µM)
MIC ([2]; H. influenzae IHMA N° 1286846): 0.5 µg/mL (≈ 1.04 µM)
MIC ([2]; H. influenzae IHMA N° 1337530): 0.12 µg/mL (≈ 0.249 µM)
MIC ([2]; H. influenzae IHMA N° 1440085): 0.5 µg/mL (≈ 1.04 µM)
MIC ([2]; H. influenzae IHMA N° 1479509): 1 µg/mL (≈ 2.08 µM)
MIC ([2]; H. influenzae IHMA N° 1952952): 0.25 µg/mL (≈ 0.519 µM)
MIC ([2]; H. influenzae IHMA N° 2047461): 0.25 µg/mL (≈ 0.519 µM)
Cumulative % at MIC ([2]; MIC […] µg/mL): 92.9%
Cumulative % at MIC ([2]; MIC […] µg/mL): 100.0%
No. of isolates at MIC ([2]; MIC […] µg/mL): 1
MIC, all isolates ([2]; n = 14): ≤ 1 µg/mL

O=C(O)c1cn(C2CC2)c2cc(N3CCNCC3)c(F)cc2c1=O [ciprofloxacin]
Cumulative % at MIC ([1]; MIC 0.004 µg/mL): 41.7%
No. of isolates at MIC ([1]; MIC 0.004 µg/mL): 5
Cumulative % at MIC ([1]; MIC >[…] µg/mL): 100.0%
No. of isolates at MIC ([1]; MIC >[…] µg/mL): 2
MIC ([1]; isolate IHMA 1123853): > 8 µg/mL
MIC ([1]; isolate IHMA 1130935): 4 µg/mL (≈ 12.1 µM)
MIC ([1]; isolate IHMA 1130989): 4 µg/mL (≈ 12.1 µM)
MIC ([1]; isolate IHMA 1130991): 8 µg/mL (≈ 24.1 µM)
MIC ([1]; isolate IHMA 1137292): > 8 µg/mL
MIC ([1]; isolate IHMA 1145734): 8 µg/mL (≈ 24.1 µM)
MIC ([1]; isolate IHMA 1145735): 4 µg/mL (≈ 12.1 µM)
MIC ([1]; isolate IHMA 1165897): 0.004 µg/mL (≈ 0.0121 µM)
MIC ([1]; isolate IHMA 1194748): 0.004 µg/mL (≈ 0.0121 µM)
MIC ([1]; isolate IHMA 1194750): 0.004 µg/mL (≈ 0.0121 µM)
MIC ([1]; isolate IHMA 1546199): 0.004 µg/mL (≈ 0.0121 µM)
MIC ([1]; isolate IHMA 1546215): 0.004 µg/mL (≈ 0.0121 µM)
